Patent publication US5637731A (priority 1996, dated 1997)

Tested on: peripheral acetylcholine-like effects
Assay: Side effect profile: in vivo overt effects (salivation, tremor, diarrhea) after oral administration
Set-up: species or system rat
Settings: (rat) po
From the text: The use of the radioligand binding assays (^3 H-QNB and ^3 H-CD) to characterize the hydroxylated oxotremorine derivatives provides a useful first approximation for,the evaluation of the muscarinic agonist-like profile of a test compound. However, in using a prodrug methodology, intrinsic activity will not be observed until in vivo hydrolysis or metabolism to the active compound occurs. Therefore, radioligand binding data, performed on the carbonyl derivatives, will not provide leading information. As a result, the observed overt effects after oral administration to rats of the test carbonyl derivative, relative to its corresponding hydroxylated oxotremorine compound, became the primary in vivo pharmacological measure. These in vivo overt effects are attributed to the peripheral acetylcholine-like effects of the compound, such as salivation, tremor and diarrhea. The in vivo overt effects also providing dosing information for the behavioral tests of cognitive improvement.

| SMILES | Side Effect Profile minimum effective dose (MED) [μ mol/kg] |
| --- | --- |
| CCCCCCNC(=O)O[C@@H]1CCN(CC#CCN(C)C)C1=O [(R)-Hexylcarbamic acid 1-[4-(dimethylamino)-2-butynyl]-2-oxo-3-pyrrolidinyl ester] | > 530 |
| CCCCCCCCOC(=O)O[C@H]1CCN(CC#CCN2CCCC2)C1=O [(S)-2-Oxo-1-[4-(1-pyrrolidinyl)-2-butynyl]-3-pyrrolidinyl carbonic acid octyl ester] | 28 |
| CCCCOC(=O)O[C@H]1CCN(CC#CCN2CCCC2)C1=O [(S)-2-Oxo-1-[4-(1-pyrrolidinyl)-2-butynyl]-3-pyrrolidinyl carbonic acid butyl ester] | 0.9 |
| CCCCCCCC(=O)O[C@@H]1CCN(CC#CCN(C)C)C1=O [(R)-Octanoic acid 1-[4-(dimethylamino)-2-butynyl]-2-oxo-3-pyrrolidinyl ester] | 508 |
| CCCC(=O)O[C@@H]1CCN(CC#CCN2CCCC2)C1=O [(R)-Butanoic acid 2-oxo-1-[4-(1-pyrrolidinyl)-2-butynyl]-3-pyrrolidinyl ester] | 7.2 |
| CCCCCCCC(=O)O[C@@H]1CCN(CC#CCN2CCCC2)C1=O [(R)-Octanoic acid 2-oxo-1-[4-(1-pyrrolidinyl)-2-butynyl]-3-pyrrolidinyl ester] | 14 |
| CCCCCCNC(=O)O[C@@H]1CCN(CC#CCN2CCCC2)C1=O [(R)-Hexylcarbamic acid 2-oxo-1-[4-(1-pyrrolidinyl)-2-butynyl]-3-pyrrolidinyl ester] | > 450 |
| CCCCCC(=O)O[C@H]1CCN(CC#CCN2CCCC2)C1=O [(S)-Hexanoic acid 2-oxo-1-[4-(1-pyrrolidinyl)-2-butynyl]-3-pyrrolidinyl ester] | 1.8 |
| CCCCCCNC(=O)O[C@H]1CCN(CC#CCN2CCCC2)C1=O [(S)-Hexylcarbamic acid 2-oxo-1-[4-(1-pyrrolidinyl)-2-butynyl]-3-pyrrolidinyl ester] | > 450 |
| CCOC(=O)O[C@H]1CCN(CC#CCN2CCCC2)C1=O [(S)-2-Oxo-1-[4-(1-pyrrolidinyl)-2-butynyl]-3-pyrrolidinyl carbonic acid ethyl ester] | 1.7 |
| CCCCCCCC(=O)O[C@H]1CCN(CC#CCN(C)C)C1=O [(S)-Octanoic acid 1-[4-(dimethylamino)-2-butynyl]-2-oxo-3-pyrrolidinyl ester] | 8.0 |
| CCCCCC(=O)O[C@@H]1CCN(CC#CCN(C)C)C1=O [(R)-Hexanoic acid 1-[4-(dimethylamino)-2-butynyl]-2-oxo-3-pyrrolidinyl ester] | 255 |
| CCCC(=O)O[C@@H]1CCN(CC#CCN(C)C)C1=O [(R)-Butanoic acid 1-[4-(dimethylamino)-2-butynyl]-2-oxo-3-pyrrolidinyl ester] | 127 |
| CCCCNC(=O)O[C@@H]1CCN(CC#CCN(C)C)C1=O [(R)-Butylcarbamic acid 1-[4-(dimethylamino)-2-butynyl]-2-oxo-3-pyrrolidinyl ester] | > 340 |
| CCCC(=O)O[C@H]1CCN(CC#CCN2CCCC2)C1=O [(S)-Butanoic acid 2-oxo-1-[4-(1-pyrrolidinyl)-2-butynyl]-3-pyrrolidinyl ester] | 1.7 |
| CCCCCCCCNC(=O)O[C@H]1CCN(CC#CCN(C)C)C1=O [(S)-Octylcarbamic acid 1-[4-(dimethylamino)-2-butynyl]-2-oxo-3-pyrrolidinyl ester] | > 520 |

Tested on: SDAT patients
Assay: not given
Settings: cited from earlier work

| SMILES | improvement in SDAT patients compared to physostigmine |
| --- | --- |
| COC(=O)C1=CCCN(C)C1 [arecoline] | more consistent improvement when compared to the anticholinergic inhibitor physostigmine |

Tested on: not listed separately
Assay: Stability remark in Table V
Type: physicochemical
Settings: in place of the optical rotation

| SMILES | stability (in words) |
| --- | --- |
| O=C1[C@H](O)CCN1CC#CCN1CCC1 [Example 33, (R)-3-Hydroxy-1-[4-(1-azetidinyl)-2-butynyl]-2-pyrrolidinone] | not stable |
| O=C1[C@@H](O)CCN1CC#CCN1CCC1 [Example 31, (S)-3-Hydroxy-1-[4-(1-azetidinyl)-2-butynyl]-2-pyrrolidinone] | not stable |
